These results are taken from EP3263567A1, “CARBOXAMIDE-SUBSTITUTED PYRAZOLES AND TRI(HETERO)ARYL-PYRAZOLES FOR USE IN METHODS OF TREATING AND / OR PREVENTING CARDIOVASCULAR DISEASES AND / OR COMORBIDITIES THEREOF” (AiCuris Anti-infective Cures GmbH, priority 2016, dated 2018).

Data set [1] concerns the target T1, human HCN4 currents (Homo sapiens, UniProt Q9Y3Q4).
T1 construct: CHO cells transiently expressing the HCN4 channel; expressed in transfected cells; host or cells: CHO (ATCC CCL-61), transiently transfected
T1 sequence (Q9Y3Q4 1-1203): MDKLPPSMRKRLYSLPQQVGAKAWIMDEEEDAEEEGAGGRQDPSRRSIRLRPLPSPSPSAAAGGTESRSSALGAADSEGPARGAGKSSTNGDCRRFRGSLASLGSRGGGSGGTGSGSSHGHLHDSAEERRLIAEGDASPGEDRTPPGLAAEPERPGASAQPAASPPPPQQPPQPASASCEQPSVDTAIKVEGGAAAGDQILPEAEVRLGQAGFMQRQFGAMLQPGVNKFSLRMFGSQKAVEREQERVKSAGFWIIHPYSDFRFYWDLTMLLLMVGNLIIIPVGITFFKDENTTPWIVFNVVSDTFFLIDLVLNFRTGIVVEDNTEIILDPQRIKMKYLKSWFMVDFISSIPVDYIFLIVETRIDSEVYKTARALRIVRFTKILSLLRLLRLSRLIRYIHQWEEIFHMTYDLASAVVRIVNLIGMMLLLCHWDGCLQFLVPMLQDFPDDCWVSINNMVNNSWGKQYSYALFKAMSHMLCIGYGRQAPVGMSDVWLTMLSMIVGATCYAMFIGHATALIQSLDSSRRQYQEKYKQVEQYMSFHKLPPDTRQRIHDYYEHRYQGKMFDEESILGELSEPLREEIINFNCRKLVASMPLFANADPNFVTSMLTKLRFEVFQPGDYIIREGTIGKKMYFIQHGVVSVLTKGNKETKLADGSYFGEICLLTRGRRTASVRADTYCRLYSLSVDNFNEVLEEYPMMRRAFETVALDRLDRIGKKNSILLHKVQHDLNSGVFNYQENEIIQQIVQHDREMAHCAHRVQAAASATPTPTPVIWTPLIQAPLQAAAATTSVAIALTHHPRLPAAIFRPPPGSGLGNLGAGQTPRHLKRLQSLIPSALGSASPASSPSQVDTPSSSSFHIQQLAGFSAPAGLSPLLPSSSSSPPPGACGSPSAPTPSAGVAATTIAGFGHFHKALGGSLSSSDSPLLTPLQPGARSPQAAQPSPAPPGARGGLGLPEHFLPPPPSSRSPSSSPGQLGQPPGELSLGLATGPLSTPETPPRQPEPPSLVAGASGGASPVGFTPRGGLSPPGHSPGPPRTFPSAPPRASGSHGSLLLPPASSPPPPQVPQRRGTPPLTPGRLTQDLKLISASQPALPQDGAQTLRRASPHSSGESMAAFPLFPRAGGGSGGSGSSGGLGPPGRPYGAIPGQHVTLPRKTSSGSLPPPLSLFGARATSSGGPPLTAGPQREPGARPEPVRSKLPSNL
In words: Whole-cell patch-clamp, HCN4 steady state currents in transiently transfected CHO cells. The class given is cell-based. The conditions noted are these: for inhibition of the HCN4 current (result in words): tested first at 10 µM; for IC50: CHO cells transiently expressing HCN4, steady state current at -120 mV, n=3, read-out: IC50 (inhibition of HCN4 currents). The text has this:
The following six compounds in accordance with the invention: • Compound A: [drawing 81] i.e. 4-[5-[3-Chloro-5-(trifluoromethoxy) phenyl]-1-(pyridin-3-yl)-1H-pyrazol-3-yl]-5,6-dihydro-7H-pyrrolo[3,4-d]pyrimidin-7-one, • Compound B: [drawing 82] i.e. 4-[5-[3-Chloro-5-(trifluoromethoxy) phenyl]-1-(pyridin-3-yl)-1H-pyrazol-3-yl]-2,3-dihydro-1H-pyrrolo[3,4-c] pyridin-1-one, • Compound C: [drawing 83] i.e. 4-[5-[3-Chloro-5-(trifluoromethoxy) phenyl]-1-(pyridin-3-yl)-1H-pyrazol-3-yl]-5,6-dihydro-2-methyl-7H-pyrrolo[3, 4-d] pyrimidin-7-one, • Compound D: [drawing 84] i.e. 3-Amino-4-[5-[3-chloro-5-(trifluoromethoxy) phenyl]-1-(pyridin-3-yl)-1H-pyrazol-3-yl-carbonyl]-1,5-dihydro-2H-pyrrol-2-one, • Compound E: [drawing 85] i.e. 1-[[5-[3-Chloro-5-(trifluoromethoxy) phenyl]-1-(pyridin-3-yl)-1H-pyrazol-3-yl]carbonyl]-imidazolidin-4-one, • Compound F: [drawing 86] i.e. 4-[5-[3-Chloro-5-(trifluoromethoxy) phenyl]-1-(3-cyano-4-fluoro-phenyl)-1H-pyrazol-3-yl]-5,6-dihydro-7H-pyrrolo[3,4-d]pyrimidin-7-one, were tested on their effects on human HCN4 currents recorded from transiently transfected CHO cells, in direct comparison to the reference compounds described below: • Ivabradine: [drawing 87] i.e. ((S)-3-{3-[([3,4-Dimethoxy-bicyclo [4.2.0]octa-1,3,5-trien-7-yl]methyl)methylamino]propyl}-1,3,4,5-tetrahydro-7,8-dimethoxy-2H-3-benzazepin-2-on), • Compound X: [drawing 88] i.e. 1-[[1-(3-Chloro-4-fluorophenyl)-5-(3-chloro-5-fluorophenyl)-1 H-pyrazol-3-yl]carbonyl]-imidazolidin-4-one, • Compound Y: [drawing 89] i.e. N-(2-Amino-2-oxoethyl)-1-(3-chloro-4-fluorophenyl)-5-(3-chloro-5-fluorophenyl)-1H-pyrazole-3-carboxamide.
The pyrazole compounds X and Y as depicted above, and having structural similarities to the compounds of general formula (I) of the invention, were also tested to investigate whether the pure If current inhibitory effect of the compounds of the invention also extend to structurally closely related compounds.
Dependent on their solubility in the assay buffer, the compounds were tested first at one concentration of 10 µM (compound A, compound Y, compound X, compound B, compound E, compound F and ivabradine) or 1 µM for (compound C and D). If the current blocking of HCN4 at this concentration was higher than 50% the compounds were tested again at five concentrations of a half-logarithmic dilution series starting with either 10 µM or 1 µM as mentioned above (meaning 0.1 µM, 0.3 µM, 1 µM, 3 µM, and 10 µM or 0.01 µM, 0.03 µM 0.1 µM, 0.3 µM and 1 µM).
Test system: CHO cells transiently expressing the HCN4 channel; NCBI Reference Sequence: NP005468.1 (HCN4 channel); Source CHO: ATCC, CCL-61 LGC Standards GmbH, Wesel, Germany were used.
In 35 mm culture dishes CHO cells were seeded at a density allowing single cells to be recorded on the dish holder of the microscope and continuously perfused (at approximately 1 mL/min) with the bath solution described above. All solutions applied to cells including the pipette solution were maintained at room temperature (19 °C - 30 °C). After formation of a Gigaohm seal between the patch electrodes and individual cells (pipette resistance range: 2.0 MΩ - 7.0 MΩ; seal resistance range: > 1 GΩ) the cell membrane across the pipette tip was ruptured to assure electrical access to the cell interior (whole-cell patch-configuration). As soon as a stable seal was established, steady state currents were measured upon the hyperpolarization to -120 mV (2000 ms) from a holding potential of -40 mV. This voltage protocol (as shown in the scheme below) did run 5 times for control conditions and at least ten times for each test concentration. Pulse intervals were 20 s (0.05 Hz). If current amplitude was judged to be too low for measurement, another cell was recorded.
Once control recordings have been accomplished, cells were continuously perfused with bath solution containing the tested compounds as detailed above, 0.1 % DMSO or 100 µM ZD7288. […]
For orientation: In patch-clamp work, channel activity is measured electrically.

Data set [2] can be described thus: Pharmacokinetics after single oral administration of formulations to dogs. Particulars: 30 mg/kg single oral dose.
Description: (§1) A single oral dose of 30 or 100 mg/kg was applied to dogs. Pharmacokinetic parameters were assessed and compared.
Male and female Beagle dogs.
(§2) Plasma concentrations were obtained by LC-MS/MS measurements.
The nature of data set [3]: in vivo. Particulars: dog, po, 30 mg/kg.
Description: as §1
Male and female Beagle dogs.
as §2
Data set [4] concerns the target T2, HCN4 (Homo sapiens, UniProt Q9Y3Q4).
T2 sequence (Q9Y3Q4 1-1203): T1 sequence (Q9Y3Q4 1-1203)
The conditions noted are these: literature value, Stieber et al. (2006) Mol Pharmacol 69, 1328-1337; read-out: IC50 mean (block of HCN4 channels); cited from earlier work.

As to `NC(=O)CNC(=O)c1cc(-c2cc(F)cc(Cl)c2)n(-c2ccc(F)c(Cl)c2)n1` [Compound Y, N-(2-Amino-2-oxoethyl)-1-(3-chloro-4-fluorophenyl)-5-(3-chloro-5-fluorophenyl)-1H-pyrazole-3-carboxamide, reference compound], in data set [1], the “inhibition of the HCN4 current (result in words)” value is “not identified as inhibitors of the HCN4 current”. For `NC1=C(C(=O)c2cc(-c3cc(Cl)cc(OC(F)(F)F)c3)n(-c3cccnc3)n2)CNC1=O` [Compound D, 3-Amino-4-[5-[3-chloro-5-(trifluoromethoxy)phenyl]-1-(pyridin-3-yl)-1H-pyrazol-3-yl-carbonyl]-1,5-dihydro-2H-pyrrol-2-one], the IC50 (usually the concentration needed to halve the response being measured) in data set [1] lay in the range of 30 to 580 nM.

`CCN(c1ccccc1)c1cc(NC)[n+](C)c(C)n1` [ZD7288, reference compound]: in data set [1] (100 µM, mean ± SEM of n=3 cells), the “relative steady state current (HCN4)” value turned out to be 12.89 ± 1.19%. For `O=C1NCc2c1ncnc2-c1cc(-c2cc(Cl)cc(OC(F)(F)F)c2)n(-c2cccnc2)n1` [ethane sulfonate], the vomiting entry in data set [2] was “two to three out of four animals”. Also, the area under the curve AUC(0-inf) (commonly the area under the concentration-time curve extrapolated to infinity) in data set [3] was determined as 218 µg·h/mL. Take `O=C1NCc2c1ccnc2-c1cc(-c2cc(Cl)cc(OC(F)(F)F)c2)n(-c2cccnc2)n1` [Compound B, 4-[5-[3-Chloro-5-(trifluoromethoxy)phenyl]-1-(pyridin-3-yl)-1H-pyrazol-3-yl]-2,3-dihydro-1H-pyrrolo[3,4-c] pyridin-1-one]: in data set [1] (0.1 µM), the “block of HCN4 currents at a single concentration” value was “almost completely”. The concentration for half-maximal inhibition (IC50) in data set [1] fell in the range of 30 to 580 nM.

Take `O=C1CN(C(=O)c2cc(-c3cc(Cl)cc(OC(F)(F)F)c3)n(-c3cccnc3)n2)CN1` [Compound E, 1-[[5-[3-Chloro-5-(trifluoromethoxy)phenyl]-1-(pyridin-3-yl)-1H-pyrazol-3-yl]carbonyl]-imidazolidin-4-one]: in data set [1], the half-maximal inhibitory concentration (IC50) was in the range of 30 to 580 nM. On to `O=C1CN(C(=O)c2cc(-c3cc(F)cc(Cl)c3)n(-c3ccc(F)c(Cl)c3)n2)CN1` [Compound X, 1-[[1-(3-Chloro-4-fluorophenyl)-5-(3-chloro-5-fluorophenyl)-1 H-pyrazol-3-yl]carbonyl]-imidazolidin-4-one, reference compound], for which the “inhibition of the HCN4 current (result in words)” value in data set [1] is on record as “not identified as inhibitors of the HCN4 current”. Take `COc1cc2c(cc1OC)CC(=O)N(CCCN(C)C[C@H]1Cc3cc(OC)c(OC)cc31)CC2` [Ivabradine, (S)-3-{3-[([3,4-Dimethoxy-bicyclo [4.2.0]octa-1,3,5-trien-7-yl]methyl)methylamino]propyl}-1,3,4,5-tetrahydro-7,8-dimethoxy-2H-3-benzazepin-2-on, reference compound]: the IC50 in data set [1] is 4460 nM; in data set [4], approximately 2150 nM. For the compound `N#Cc1cc(-n2nc(-c3ncnc4c3CNC4=O)cc2-c2cc(Cl)cc(OC(F)(F)F)c2)ccc1F` [Compound F, 4-[5-[3-Chloro-5-(trifluoromethoxy)phenyl]-1-(3-cyano-4-fluoro-phenyl)-1H-pyrazol-3-yl]-5,6-dihydro-7H-pyrrolo[3,4-d]pyrimidin-7-one], the IC50 in data set [1] was in the range of 30 to 580 nM. On the same count and under the same terms, the same measure for `Cc1nc2c(c(-c3cc(-c4cc(Cl)cc(OC(F)(F)F)c4)n(-c4cccnc4)n3)n1)CNC2=O` [Compound C, 4-[5-[3-Chloro-5-(trifluoromethoxy)phenyl]-1-(pyridin-3-yl)-1H-pyrazol-3-yl]-5,6-dihydro-2-methyl-7H-pyrrolo[3,4-d] pyrimidin-7-one]: 30 to 580 nM.
